# Where no end group is shown, it is not given here.
# Columns and labels:
# Test in all cases: Histone peptide microarray
# Type in all cases: binding, human
# TAF3 = test system: TAF3
# Summary of the method: (§1)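 A peptide microarray holding 293 synthetic histone peptides with individual or combinatorial modifications was probed with each GST-PHD protein at 0.5 μM. Values represent mean intensity (±SD) from four replicates.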
# ING5 = test system: ING5
# Summary of the method: as §1
# CHD5 (PPCC) = test system: CHD5 (PPCC)
# Summary of the method: as §1
# TRIM66 (PB) = test system: TRIM66 (PB)
# Summary of the method: as §1
# KDM5A (1) = test system: KDM5A (1)
# Summary of the method: as §1
# PHRF1 (RP) = test system: PHRF1 (RP)
# Summary of the method: as §1
# ING3 = test system: ING3
# Summary of the method: as §1
# MLL5 = test system: MLL5
# Summary of the method: as §1
# KDM5A (3) = test system: KDM5A (3)
# Summary of the method: as §1
# BAZ2B = test system: BAZ2B
# Summary of the method: as §1
# KDM5B (3) = test system: KDM5B (3)
# Summary of the method: as §1
# SP140L = test system: SP140L
# Summary of the method: as §1
# PHF13 = test system: PHF13
# Summary of the method: as §1
# ING2 = test system: ING2
# Summary of the method: as §1
# DPF2 (PPC2W2) = test system: DPF2 (PPC2W2)
# Summary of the method: as §1
# KDM7A = test system: KDM7A
# Summary of the method: as §1
# PHF23 = test system: PHF23
# Summary of the method: as §1
# CHD5 (PCC) = test system: CHD5 (PCC)
# Summary of the method: as §1
# KDM5B (1) = test system: KDM5B (1)
# Summary of the method: as §1
# PHF8 = test system: PHF8
# Summary of the method: as §1
# BPTF (PB) = test system: BPTF (PB)
# Summary of the method: as §1
# CHD4 (PPCC) = test system: CHD4 (PPCC)
# Summary of the method: as §1
# ING1 = test system: ING1
# Summary of the method: as §1
# KDM4C (TTP) = test system: KDM4C (TTP)
# Summary of the method: as §1
# DIDO1 = test system: DIDO1
# Summary of the method: as §1
# AIRE (PP) = test system: AIRE (PP)
# Summary of the method: as §1
# PHF21A = test system: PHF21A
# Summary of the method: as §1
# MORC3 (CW) = test system: MORC3 (CW)
# Summary of the method: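 GST-tagged PHD finger readers were expressed, purified and applied at 0.5 μM to a microarray of 293 synthetic histone peptides carrying single or combinatorial PTMs, using an optimized protocol. Binding signals are averages with standard deviation from 4 replicates.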
# RAG2 = test system: RAG2
# Summary of the method: as §1
# ING4 = test system: ING4
# Summary of the method: as §1
# PHF2 = test system: PHF2
# Summary of the method: as §1
# [1] = histone peptide array, GST-tagged reader, arrays performed twice, n of 4
# [2] = histone peptide array, GST-tagged reader, PPCC = Dual PHD + Dual Chromodomain, arrays performed twice, n of 4
# [3] = histone peptide array, GST-tagged reader, PB = PHD + Bromodomain, arrays performed twice, n of 4
substance,measurement,setting,value
H3.3K27vl (15-34): H3.3 15-34,Array Heatmap value (peptide array signal),"TAF3; TAF3, sheet ""Array Heatmap"", each array performed twice, total n = 4",0.2402
same,Array Heatmap value (peptide array signal),"ING5; ING5, sheet ""Array Heatmap"", each array performed twice, total n = 4",0.3413
same,Array Heatmap value (peptide array signal),"CHD5 (PPCC); CHD5 (PPCC), sheet ""Array Heatmap"", each array performed twice, total n = 4",0.5207
same,Array Heatmap value (peptide array signal),"TRIM66 (PB); TRIM66 (PB), sheet ""Array Heatmap"", each array performed twice, total n = 4",0.5686
same,Array Heatmap value (peptide array signal),"KDM5A (1); KDM5A (1), sheet ""Array Heatmap"", each array performed twice, total n = 4",0.4391
same,Array Heatmap value (peptide array signal),"PHRF1 (RP); PHRF1 (RP), sheet ""Array Heatmap"", each array performed twice, total n = 4",0.4435
same,Array Heatmap value (peptide array signal),"ING3; ING3, sheet ""Array Heatmap"", each array performed twice, total n = 4",0.4849
same,Array Heatmap value (peptide array signal),"MLL5; MLL5, sheet ""Array Heatmap"", each array performed twice, total n = 4",0.5405
same,Array Heatmap value (peptide array signal),"KDM5A (3); KDM5A (3), sheet ""Array Heatmap"", each array performed twice, total n = 4",0.423
same,Array Heatmap value (peptide array signal),"BAZ2B; BAZ2B, sheet ""Array Heatmap"", each array performed twice, total n = 4",0.4362
same,Array Heatmap value (peptide array signal),"KDM5B (3); KDM5B (3), sheet ""Array Heatmap"", each array performed twice, total n = 4",0.4603
same,Array Heatmap value (peptide array signal),"SP140L; SP140L, sheet ""Array Heatmap"", each array performed twice, total n = 4",0.3739
same,Array Heatmap value (peptide array signal),"PHF13; PHF13, sheet ""Array Heatmap"", each array performed twice, total n = 4",0.5845
same,Array Heatmap value (peptide array signal),"ING2; ING2, sheet ""Array Heatmap"", each array performed twice, total n = 4",0.6055
same,Array Heatmap value (peptide array signal),"DPF2 (PPC2W2); DPF2 (PPC2W2), sheet ""Array Heatmap"", each array performed twice, total n = 4",0.6907
same,Array Heatmap value (peptide array signal),"KDM7A; KDM7A, sheet ""Array Heatmap"", each array performed twice, total n = 4",0.3156
same,Array Heatmap value (peptide array signal),"PHF23; PHF23, sheet ""Array Heatmap"", each array performed twice, total n = 4",0.5229
same,Array Heatmap value (peptide array signal),"CHD5 (PCC); CHD5 (PCC), sheet ""Array Heatmap"", each array performed twice, total n = 4",0.7909
same,Array Heatmap value (peptide array signal),"KDM5B (1); KDM5B (1), sheet ""Array Heatmap"", each array performed twice, total n = 4",0.5524
same,Array Heatmap value (peptide array signal),"PHF8; PHF8, sheet ""Array Heatmap"", each array performed twice, total n = 4",0.3696
same,Array Heatmap value (peptide array signal),"BPTF (PB); BPTF (PB), sheet ""Array Heatmap"", each array performed twice, total n = 4",0.3408
same,Array Heatmap value (peptide array signal),"CHD4 (PPCC); CHD4 (PPCC), sheet ""Array Heatmap"", each array performed twice, total n = 4",0.5729
same,Array Heatmap value (peptide array signal),"ING1; ING1, sheet ""Array Heatmap"", each array performed twice, total n = 4",0.5627
same,Array Heatmap value (peptide array signal),"KDM4C (TTP); KDM4C (TTP), sheet ""Array Heatmap"", each array performed twice, total n = 4",0.4488
same,Array Heatmap value (peptide array signal),"DIDO1; DIDO1, sheet ""Array Heatmap"", each array performed twice, total n = 4",0.7045
same,Array Heatmap value (peptide array signal),"AIRE (PP); AIRE (PP), sheet ""Array Heatmap"", each array performed twice, total n = 4",0.3881
same,Array Heatmap value (peptide array signal),"PHF21A; PHF21A, sheet ""Array Heatmap"", each array performed twice, total n = 4",0.4671
same,Array Heatmap value (peptide array signal),"MORC3 (CW); MORC3 (CW), sheet ""Array Heatmap"", each array performed twice, total n = 4",0.3607
same,Array Heatmap value (peptide array signal),"RAG2; RAG2, sheet ""Array Heatmap"", each array performed twice, total n = 4",0.2413
same,Array Heatmap value (peptide array signal),"ING4; ING4, sheet ""Array Heatmap"", each array performed twice, total n = 4",0.4471
same,Array Heatmap value (peptide array signal),"PHF2; PHF2, sheet ""Array Heatmap"", each array performed twice, total n = 4",0.5263
"H3.3K36ac (27-45): H3.3 27-45 (KSAPSTGGVK(Ac)KPHRYRPGT; UniProt P84243 28-46, looked up, fragment)","Array Heatmap signal, TAF3",TAF3; [1],0.2777
same,"Array Heatmap signal, ING5",ING5; [1],0.3709
same,"Array Heatmap signal, CHD5 (PPCC)",CHD5 (PPCC); [2],0.5516
same,"Array Heatmap signal, TRIM66 (PB)",TRIM66 (PB); [3],0.5797
same,"Array Heatmap signal, KDM5A (1)",KDM5A (1); [1],0.4872
same,"Array Heatmap signal, PHRF1 (RP)",PHRF1 (RP); [1],0.3938
same,"Array Heatmap signal, ING3",ING3; [1],0.4435
same,"Array Heatmap signal, MLL5",MLL5; [1],0.5589
same,"Array Heatmap signal, KDM5A (3)",KDM5A (3); [1],0.4209
same,"Array Heatmap signal, BAZ2B",BAZ2B; [1],0.4933
same,"Array Heatmap signal, KDM5B (3)",KDM5B (3); [1],0.5076
same,"Array Heatmap signal, SP140L",SP140L; [1],0.378
same,"Array Heatmap signal, PHF13",PHF13; [1],0.6099
same,"Array Heatmap signal, ING2",ING2; [1],0.5814
same,"Array Heatmap signal, DPF2 (PPC2W2)","DPF2 (PPC2W2); histone peptide array, GST-tagged reader, PPC2W2 = Dual PHD + C2W2-type Zn-finger, arrays performed twice, n of 4",0.6599
same,"Array Heatmap signal, KDM7A",KDM7A; [1],0.4861
same,"Array Heatmap signal, PHF23",PHF23; [1],0.4952
same,"Array Heatmap signal, CHD5 (PCC)","CHD5 (PCC); histone peptide array, GST-tagged reader, PCC = PHD + Dual Chromodomain, arrays performed twice, n of 4",0.818
same,"Array Heatmap signal, KDM5B (1)",KDM5B (1); [1],0.6658
same,"Array Heatmap signal, PHF8",PHF8; [1],0.3248
same,"Array Heatmap signal, BPTF (PB)",BPTF (PB); [3],0.3342
same,"Array Heatmap signal, CHD4 (PPCC)",CHD4 (PPCC); [2],0.5592
same,"Array Heatmap signal, ING1",ING1; [1],0.4834
same,"Array Heatmap signal, KDM4C (TTP)","KDM4C (TTP); histone peptide array, GST-tagged reader, TTP = Tandem Tudor domain + PHD, arrays performed twice, n of 4",0.5383
same,"Array Heatmap signal, DIDO1",DIDO1; [1],0.652
same,"Array Heatmap signal, AIRE (PP)",AIRE (PP); [1],0.5459
same,"Array Heatmap signal, PHF21A",PHF21A; [1],0.4713
same,"Array Heatmap signal, MORC3 (CW)","MORC3 (CW); histone peptide array, GST-tagged reader, CW = CW-type Zn-finger, arrays performed twice, n of 4",0.2989
same,"Array Heatmap signal, RAG2",RAG2; [1],0.2614
same,"Array Heatmap signal, ING4",ING4; [1],0.4648
same,"Array Heatmap signal, PHF2",PHF2; [1],0.4404
